The target in experiment [1] is T1, MAGL (Homo sapiens, UniProt Q99685).
T1 sequence (Q99685 1-303): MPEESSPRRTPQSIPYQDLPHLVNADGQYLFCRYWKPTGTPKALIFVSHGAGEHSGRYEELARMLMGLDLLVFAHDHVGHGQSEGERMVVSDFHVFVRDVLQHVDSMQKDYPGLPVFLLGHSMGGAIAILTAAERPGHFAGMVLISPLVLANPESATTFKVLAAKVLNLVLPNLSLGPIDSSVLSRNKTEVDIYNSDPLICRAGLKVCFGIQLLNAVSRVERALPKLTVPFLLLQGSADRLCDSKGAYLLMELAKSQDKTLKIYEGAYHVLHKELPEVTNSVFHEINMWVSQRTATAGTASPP
The experiment is described as follows: In vitro competitive activity-based protein profiling, MAGL, human. The note with it: for inhibition at 1 µM: read-out: MAGL % inh. 1 μM (human).

Experiment [2] deals with T2, MAGL (Mus musculus, UniProt O35678).
T2 sequence (O35678 1-303): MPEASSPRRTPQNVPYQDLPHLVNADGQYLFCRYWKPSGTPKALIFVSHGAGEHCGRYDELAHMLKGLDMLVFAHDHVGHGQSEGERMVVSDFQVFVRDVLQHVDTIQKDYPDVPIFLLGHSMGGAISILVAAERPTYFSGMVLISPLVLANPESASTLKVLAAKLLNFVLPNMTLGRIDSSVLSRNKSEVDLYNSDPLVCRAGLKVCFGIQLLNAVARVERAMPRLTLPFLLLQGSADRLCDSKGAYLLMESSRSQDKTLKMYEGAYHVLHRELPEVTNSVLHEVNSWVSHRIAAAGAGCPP
The experiment is described as follows: In vitro competitive activity-based protein profiling, MAGL, mouse. The note with it: read-out: MAGL % inh. 1 μM (mouse).
Method: Biological Evaluation In Vitro Competitive Activity-Based Protein Profiling.
Proteomes (mouse brain membrane fraction for mouse assays; human prefrontal cortex membrane fractions for human assays) (50 mL, 1.0 mg/mL total protein concentration) were preincubated with varying concentrations of inhibitors at 37° C. After 30 min, FP-Rh (1.0 mL, 50 mM in DMSO) was added and the mixture was incubated for another 30 min at 37° C. Reactions were quenched with SDS loading buffer (15 μL—4λ) and run on SDS-PAGE.

Each structure is given as a SMILES string. Where only a bound is given, the exact number is not on record here.

As for `O=C(O)c1nn(C(=O)N2CCN(Cc3cccc(Oc4ccc(F)cc4)c3)CC2)cc1Cl` [Example 320, 4-chloro-1-(4-(3-(4-fluorophenoxy)benzyl)piperazine-1-carbonyl)-1H-pyrazole-3-carboxylic acid], the inhibition at 1 µM on MAGL [1] and at MAGL [2] was more than 75% throughout.
For `O=C(O)c1ccn(C(=O)N2C[C@H]3C[C@@H](OCc4cccc(C(F)(F)F)c4)C[C@H]3C2)n1` [Example 255, 1-(trans-5-((3-(trifluoromethyl)benzyl)oxy)octa-hydrocyclopenta[c]pyrrole-2-carbonyl)-1H-pyrazole-3-carboxylic acid], on MAGL [1], the IC50 lay within 100 to 1000 nM and the inhibition at 1 µM was more than 75%. The inhibition at 1 µM on MAGL [2] is more than 75%.
For the molecule `Cc1cn(C(=O)N2C[C@H]3C[C@H](Oc4ccccc4-c4ccccc4)C[C@H]3C2)nc1C(=O)O` [Example 281, 1-(trans-5-([1,1′-biphenyl]-2-yloxy)octahydro-cyclopenta[c]pyrrole-2-carbonyl)-4-methyl-1H-pyrazole-3-carboxylic acid], the inhibition at 1 µM at MAGL [1] and at MAGL [2] was more than 75% each time.
`NC(=O)c1ccn(C(=O)N2CCC3(CCCN3Cc3cc4ccc(C(F)(F)F)cc4s3)CC2)n1` [Example 22, 1-(1-((6-(Trifluoromethyl)benzo[b]thiophen-2-yl)methyl)-1,8-diazaspiro[4.5]decane-8-carbonyl)-1H-pyrazole-3-carboxamide]: the inhibition at 1 µM at MAGL [1] and at MAGL [2] was more than 75% each time.
With `O=C(O)c1ccn(C(=O)N2CCN(Cc3cccc(Oc4ccc(C(F)(F)F)nc4)c3)CC2)n1` [Example 354, 1-(4-(3-((6-(trifluoromethyl)pyridin-3-yl)oxy)benzyl)piper-azine-1-carbonyl)-1H-pyrazole-3-carboxylic acid], the inhibition at 1 µM at MAGL [1] and on MAGL [2] was more than 75% in each case.
`O=C(O)c1ccn(C(=O)N2C[C@H]3C[C@H](Oc4ccccc4-c4ccccc4)C[C@H]3C2)n1` [Example 239, 1-(trans-5-([1,1′-biphenyl]-2-yloxy)octahydro-cyclopenta[c]pyrrole-2-carbonyl)-1H-pyrazole-3-carboxylic acid]: the inhibition at 1 µM on MAGL [1] and at MAGL [2] was more than 75% in each case.
Regarding `O=C(O)c1ccn(C(=O)N2CCC3(CCCN3Cc3ccc(C(F)(F)F)cc3N3CCOCC3)CC2)n1` [Example 405, 1-(1-(2-morpholino-4-(trifluoromethyl)benzyl)-1,8-diazaspiro[4.5]decane-8-carbonyl)-1H-pyrazole-3-carboxylic acid], the inhibition at 1 µM at MAGL [1] and at MAGL [2] was more than 75% each time.
`CC1(NCc2ccc(C(F)(F)F)cc2N2CCCC2)CCN(C(=O)n2ccc(C(=O)O)n2)CC1` [Example 361, 1-(4-methyl-4-((2-(pyrrolidin-1-yl)-4-(trifluoromethyl)benzyl)amino)piper-idine-1-carbonyl)-1H-pyrazole-3-carboxylic acid]: the inhibition at 1 µM on MAGL [1] and at MAGL [2] was more than 75% each time.
Regarding `CC(C)(O)COc1cccc(CN2CCN(C(=O)n3ccc(C(=O)O)n3)CC2)c1Cl` [Example 213, 1-(4-(2-chloro-3-(2-hydroxy-2-methylpropoxy)benzyl)piperazine-1-carbonyl)-1H-pyrazole-3-carboxylic acid], the inhibition at 1 µM on MAGL [1] and on MAGL [2] was more than 75% throughout.
In the case of `O=C(O)c1nn(C(=O)N2CCN(Cc3cccc(Oc4cc(C(F)(F)F)ccn4)c3)CC2)cc1Cl` [Example 399, 4-chloro-1-(4-(3-((4-(trifluoromethyl)pyridin-2-yl)oxy)benzyl)piper-azine-1-carbonyl)-1H-pyrazole-3-carboxylic acid], the inhibition at 1 µM on MAGL [1] and on MAGL [2] was more than 75% in each case.
As to `O=C(O)c1ccn(C(=O)N2CCC3(CCN(Cc4cccc(-c5cncnc5)c4)C3)CC2)n1` [Example 302, 1-(2-(3-(pyrimidin-5-yl)benzyl)-2,8-diazaspiro[4.5]decane-8-carbonyl)-1H-pyrazole-3-carboxylic acid], the inhibition at 10 µM on MAGL [1] (read-out: MAGL % inh. (human) at 10 uM) was more than 75%. The inhibition at 1 µM at MAGL [2] fell in the range of 0 to 25%.
As for `O=C(O)c1ccn(C(=O)N2CCN(Cc3cccc(Oc4cccc(C(F)(F)F)n4)c3)CC2)n1` [Example 353, 1-(4-(3-((6-(trifluoromethyl)pyridin-2-yl)oxy)benzyl)piper-azine-1-carbonyl)-1H-pyrazole-3-carboxylic acid], the inhibition at 1 µM on MAGL [1] and on MAGL [2] was more than 75% in each case.
Regarding `O=C(O)c1ccn(C(=O)N2C[C@H]3C[C@H](Oc4cccc(-c5nccs5)c4)C[C@H]3C2)n1` [Example 261, 1-(trans-5-(3-(thiazol-2-yl)phenoxy)octa-hydrocyclopenta[c]pyrrole-2-carbonyl)-1H-pyrazole-3-carboxylic acid], the inhibition at 1 µM at MAGL [1] and on MAGL [2] was more than 75% throughout.
On to `O=C(O)c1ccn(C(=O)N2CCC3(CCN(Cc4cccc(-c5nccs5)c4)C3)CC2)n1` [Example 305, 1-(2-(3-(thiazol-2-yl)benzyl)-2,8-diazaspiro[4.5]decane-8-carbonyl)-1H-pyrazole-3-carboxylic acid], for which the inhibition at 1 µM lay within 50 to 75% on MAGL [1] and 0 to 25% at MAGL [2].
For `O=C(O)c1ccn(C(=O)N2CCC(OCc3cccc(N4CCCC4)c3)CC2)n1` [Example 226, 1-(4-((3-(pyrrolidin-1-yl)benzyl)oxy)piper-idine-1-carbonyl)-1H-pyrazole-3-carboxylic acid], in that order: more than 75% and more than 75%.
For `O=C(O)c1ccn(C(=O)N2CCC3(CCN(Cc4cccc(C(F)(F)F)c4Cl)C3)CC2)n1` [Example 339, 1-(2-(2-chloro-3-(trifluoromethyl)benzyl)-2,8-diazaspiro[4.5]decane-8-carbonyl)-1H-pyrazole-3-carboxylic acid], in that order: more than 75% and more than 75%.
As for `O=C(O)c1ccn(C(=O)N2C[C@H]3C[C@H](Oc4cccc(-c5ccccn5)c4)C[C@H]3C2)n1` [Example 242, 1-(trans-5-(3-(pyridin-2-yl)phenoxy)octa-hydrocyclopenta[c]pyrrole-2-carbonyl)-1H-pyrazole-3-carboxylic acid], the inhibition at 1 µM on MAGL [1] and on MAGL [2] was more than 75% in each case.
For `O=C(O)c1ccn(C(=O)N2C[C@H]3C[C@H](Oc4cccc(C5CC5)c4)C[C@H]3C2)n1` [Example 219, 1-(trans-5-(3-cyclopropylphenoxy)octahydrocyclopenta [c]pyrrole-2-carbonyl)-1H-pyrazole-3-carboxylic acid], the inhibition at 1 µM on MAGL [1] and on MAGL [2] was more than 75% throughout.
With `O=C(O)c1nn(C(=O)N2C[C@H]3C[C@H](Oc4cccc(-c5ccccc5)c4)C[C@H]3C2)cc1C(F)(F)F` [Example 369, 1-(trans-5-([1,1′-biphenyl]-3-yloxy)octahydro-cyclopenta[c]pyrrole-2-carbonyl)-4-(trifluoromethyl)-1H-pyrazole-3-carboxylic acid], the inhibition at 1 µM at MAGL [1] and at MAGL [2] was more than 75% in each case.

(Values after patent US10266497B2 (ABIDE THERAPEUTICS, INC., priority 2017, dated 2019).)
